Test results: patent US9944589B2, “Cycloproplyamine derivatives useful as inhibitors of histone demethylases KDM1A” (Istituto Europeo de Oncologia S.r.L., priority 2012, dated 2018)
Values joined by “and” are separate entries in the source; they are usually repeats but may differ in a detail not shown here. Equal entries are not always repeated. Structures can show the parent of a compound that is named as a salt.

target: T1, human recombinant KDM1A (LSD1)/CoRest (Homo sapiens, UniProt O60341); assay: Assay of enzyme inhibition of KDM1A (LSD1), Amplex UltraRed/peroxidase coupled; type: biochemical; conditions: 15 min preincubation, 4.5 μM mono-methylated H3-K4 peptide, range classes, read-out: IC50 [μM], KDM1A inhibition assay
T1 construct: made in house; host or cells: E. coli
Protocol: The experiments were performed using a mono-methylated H3-K4 peptide containing 21 amino acids (custom synthesis done by Thermo Scientific) as substrate and in a 50 mM TRIS, pH 8, 0.05 mg/ml BSA buffer.
The demethylase activity was estimated under aerobic conditions and at RT by measuring the release of H2O2 produced during the catalytic process by the Amplex® UltraRed detection system coupled with peroxidase assay. Briefly, a fixed amount of KDM1A/CoRest complex was incubated at RT for 15 minutes in the absence and/or the presence of various concentrations of inhibitor (e.g. from 0 to 100 μM, depending on the inhibitor strength) and of Amplex® UltraRed detection system coupled with peroxidase assay. The inhibitors were tested twice in duplicates at each concentration. […] The conversion of the Amplex® Ultra Red reagent to resorufin was monitored in continuous by fluorescence (excitation at 540 nm, emission at 590 nm) using a microplate reader (Infinite 200, Tecan). Arbitrary units were used to measure the level of H2O2 produced in the absence and/or in the presence of inhibition. The maximum demethylase activity of KDM1A/CoRest was obtained in the absence of inhibitors and corrected for background fluorescence in the absence of KDM1A/CoRest. The IC50 was calculated using GraphPad Software.

Row | Structure (SMILES) | IC50
1 | N[C@]1(c2ccccc2)C[C@H]1c1ccc(NC(=O)Cc2ccc3ccccc3c2)cc1 (relative stereo) [Example A-107, N-[4-(trans-2-amino-2-phenyl-cyclopropyl)phenyl]-2-(2-naphthyl) acetamide 2,2,2-trifluoroacetic acid] | < 0.1 µM
2 | N[C@]1(c2ccccc2)C[C@H]1c1ccc(NC(=O)c2ccncc2)cc1 (relative stereo) [Example A-108, N-[4-(trans-2-amino-2-phenyl-ccyclopropyl)phenyl] pyridine-4-carboxamide dihydrochloride] | < 0.1 µM
3 | CN1CCC(c2ccc(C(=O)Nc3ccc([C@@H]4C[C@]4(N)c4ccccc4)cc3)cc2)CC1 (relative stereo) [Example A-109, N-[4-(trans-2-amino-2-phenyl-cyclopropyl]phenyl)-4-(1-methyl-4-piperidyl) benzamide dihydrochloride] | < 0.1 µM
4 | CN1CCN(c2ccc(C(=O)Nc3ccc([C@@H]4C[C@]4(N)c4ccccc4)cc3)cc2)CC1 (relative stereo) [Example A-110, N-[4-(trans-2-amino-2-phenyl-cyclopropyl)phenyl]-4-(4-methylpiperazin-1-yl)benzamide hydrochloride] | < 0.1 µM
5 | N[C@]1(c2ccccc2)C[C@H]1c1ccc(NC(=O)c2cccc(N3CCOC3=O)c2)cc1 (relative stereo) [Example A-111, N-[4-(trans-2-amino-2-phenyl-cyclopropyl)phenyl]-3-(2-oxooxazolidin-3-yl)benzamide hydrochloride] | < 0.1 µM
6 | N[C@]1(CCc2ccccc2)C[C@H]1c1ccc(NC(=O)c2ccncc2)cc1 (relative stereo) [Example A-112, N-[4-(trans-2-amino-2-phenethyl-cyclopropyl)phenyl] pyridine-4-carboxamide hydrochloride] | < 0.1 µM
7 | CC[C@@]1(N)C[C@H]1c1ccc(NC(=O)c2ccc(NCCO)cc2)cc1 (relative stereo) [Example A-120, N-[4-(trans-2-amino-2-ethyl-cyclopropyl]phenyl)-4-(2-hydroxyethylamino)benzamide hydrochloride] | 0.1 to 1 µM
8 | CC[C@@]1(N)C[C@H]1c1ccccc1-n1cc(-c2ccccc2)nn1 (relative stereo) [Example A-125, trans 1-ethyl-2-[2-(4-phenyltriazol-1-yl)phenyl]cyclopropan amine hydrochloride] | 0.1 to 1 µM
9 | COc1cccc([C@@H]2C[C@]2(N)Cc2ccccc2)c1 (relative stereo) [Example A-129, trans 1-Benzyl-2-(3-methoxyphenyl)cyclopropanamine hydrochloride] | 0.1 to 1 µM
10 | CC[C@@]1(N)C[C@H]1c1cccc(N2CCN(c3ccccc3)C2=O)c1 (relative stereo) [Example A-130, 1-[3-[(trans-2-amino-2-ethyl-cyclopropyl]phenyl]-3-phenyl-imidazolidin-2-one hydrochloride] | 0.1 to 1 µM
11 | CC[C@@]1(N)C[C@H]1c1ccc(-n2cc(-c3ccccc3)nn2)cc1 (relative stereo) [Example A-131, trans-1-Ethyl-2-[4-(4-phenyltriazol-1-yl)phenyl]cyclopropanamine hydrochloride] | < 0.1 µM
12 | N[C@]1(CNC2CC2)C[C@H]1c1ccccc1 (relative stereo) [Example B-4, trans 1-[(cyclopropylamino)methyl]-2-phenyl-cyclopropanamine dihydrochloride] | 1 to 5 µM
13 | CN1CCN(C[C@@]2(N)C[C@H]2c2ccccc2)CC1 (relative stereo) [Example B-5, trans-1-[(4-methylpiperazine-1-yl)methyl]-2-phenyl-cyclopropanamine trihydrochloride] | 1 to 5 µM
14 | CC[C@@]1(NCC(=O)N2CCN(C)CC2)C[C@H]1c1ccccc1 (relative stereo) [Example C-6, trans-2-[[(1-ethyl-2-phenyl-cyclopropyl]amino]-1-(1-methylpiperazin-1-yl)ethanone trifluoroacetate] | 0.1 to 1 µM
15 | CC[C@@]1(NCc2ccccc2)C[C@H]1c1ccccc1 (relative stereo) [Example C-13, trans-N-benzyl-1-ethyl-2-phenyl-cyclopropanamine hydrochloride] | 1 to 5 µM
16 | CN[C@]1(C)C[C@H]1c1ccccc1 (relative stereo) [Example C-29, trans-N,1-dimethyl-2-phenyl-cyclopropanamine hydrochloride] | 1 to 5 µM
17 | N[C@]1(Cc2ccc3ccccc3c2)C[C@H]1c1ccc(-n2cc(-c3cccc(NC(=O)OCc4ccccc4)c3)nn2)cc1 [Example A-123, benzyl N-[3-[1-[4-[2-amino-2-(2-naphthylmethyl)cyclopropyl]phenyl]triazol-4-yl]phenyl] carbamate hydrochloride] | < 0.1 µM
18 | CC[C@]1(N)C[C@@H]1c1ccc(NC(=O)c2ccc(-c3ccccc3)cc2)cc1 [Example A-128, N-[4-[(1R,2S)-2-amino-2-ethyl-cyclopropyl]phenyl]-4-phenyl-benzamide hydrochloride] | < 0.1 µM
19 | CN1CCN(C(=O)CN[C@@]2(C)C[C@@H]2c2ccccc2)CC1 [Example C-3, 2-[[(1S,2R)-1-methyl-2-phenyl-cyclopropyl]amino]-1-(4-methylpiperazin-1-yl)ethanone dihydrochloride] | < 0.1 µM and 1 to 5 µM
20 | C[C@]1(NCC(=O)N2CC[C@H](N)C2)C[C@@H]1c1ccccc1 [Example C-5, 1-[(3S)-3-aminopyrrolidin-1-yl]-2-[[(1S,2R)-1-methyl-2-phenyl-cyclopropyl]amino] ethanone hydrochloride] | 0.1 to 1 µM

Now from value to molecule:

Row | IC50 | Structure (SMILES)
21 | 0.1 to 1 µM | C[C@@]1(NCc2cnc(N)nc2)C[C@H]1c1ccccc1 (relative stereo) [Example C-19, 5-{[(trans-1-methyl-2-phenyl-cyclopropyl)amino]methyl} pyrimidin-2-amine dihydrochloride]
22 | 1 to 5 µM | COc1ncccc1CN[C@]1(C)C[C@H]1c1ccccc1 (relative stereo) [Example C-20, trans-N-[(2-methoxy-3-pyridyl)methyl]-1-methyl-2-phenyl-cyclopropanamine]
23 | 0.1 to 1 µM | C[C@@]1(NCc2ccc3c(c2)OCCO3)C[C@H]1c1ccccc1 (relative stereo) [Example C-21, trans-N-(2,3-dihydro-1,4-benzodioxin-6-ylmethyl)-1-methyl-2-phenyl-cyclopropanamine 2,2,2-trifluoroacetic acid]
24 | 0.1 to 1 µM | CN1CCN(C(=O)CN[C@]2(c3ccccc3)C[C@H]2c2ccccc2)CC1 (relative stereo) [Example C-23, 2-[[trans-1,2-diphenylcyclopropyl]amino]-1-(4-methylpiperazin-1-yl)ethanone dihydrochloride]
25 | < 0.1 µM | CN1CCN(C(=O)CN[C@]2(C)C[C@H]2c2ccccc2)CC1 (relative stereo) [Example C-27, 2-[[trans-1-methyl-2-phenyl-cyclopropyl]amino]-1-(4-methylpiperazin-1-yl)ethanone dihydrochloride]
26 | 1 to 5 µM | CN1CCN(C(=O)CN[C@@]2(C)C[C@H]2c2ccccc2)CC1 (relative stereo) [Example C-28, 2-[[cis-1-methyl-2-phenyl-cyclopropyl]amino]-1-(4-methylpiperazin-1-yl)ethanone dihydrochloride]
27 | 0.1 to 1 µM | CC[C@@]1(NCCN2CCCCC2)C[C@H]1c1ccccc1 (relative stereo) [Example C-31, trans-1-Ethyl-2-phenyl-N-[2-(1-piperidyl)ethyl]cyclopropanamine dihydrochloride]
28 | 0.1 to 1 µM | C[C@@]1(NCc2nnc(N)o2)C[C@H]1c1ccccc1 (relative stereo) [Example C-32, 5-[[[trans-1-methyl-2-phenyl-cyclopropyl]amino]methyl]-1,3,4-oxadiazol-2-amine]
29 | 0.1 to 1 µM | CC(=O)Nc1ccc([C@@]2(N)C[C@H]2c2ccccc2)cc1 (relative stereo) [Example D-6, N-[4-[trans-1-amino-2-phenyl-cyclopropyl]phenyl]acetamide hydrochloride]
30 | < 0.1 µM | CN1CCN(C(=O)CN[C@]2(C)C[C@H]2c2ccccc2)CC1 [Example C-25, 2-[[(1R,2S)-1-methyl-2-phenyl-cyclopropyl]amino]-1-(4-methylpiperazin-1-yl)ethanone 2,2,2-trifluoroacetic acid]
31 | 1 to 5 µM | CN1CCN(C(=O)CN[C@]2(C)C[C@@H]2c2ccccc2)CC1 [Example C-26, 2-[[(1R,2R)-1-methyl-2-phenyl-cyclopropyl]amino]-1-(4-methylpiperazin-1-yl)ethanone 2,2,2-trifluoroacetic acid]

test system: Acute promyelocytic leukemia NB4 cells; assay: Cell growth (CellTiter-Fluor cell viability assay); type: cell-based; conditions: Homo sapiens, NB-4, 48 h, 100 μM, read-out: inhibition at 100 μM, cell growth inhibitory assay
Excerpt: CellTiter-Flor® (Promega) is as a nonlytic, single-reagent-addition fluorescence assay that measures the relative number of living cells in a culture population after experimental manipulation. The CellTiter-Fluor™ Cell Viability Assay measures the conserved and constitutive protease activity within live cells and therefore acts as a marker for cell viability.
Acute promyelocytic leukemia NB4 cells, (obtained from the Deutsche Sammlung von Mikroorganismen and Zellkulturen) in exponential growth, were incubated for 48 h with different concentrations of the inhibitors. After 48 h a volume of CellTiter-Fluor® Reagent equal to one fifth of volume of cell culture medium was added. The content was mixed and incubates for at least 90 min at 37° C. degree to obtain a stable signal. The fluorescence was recorded using an excitation wavelength of 360 nm and an emission at 535 nm. The IC50 was calculated using GraphPad Software.

Row | Structure (SMILES) | inhibition at 100 µM
32 | N[C@@H]1C[C@H]1c1ccccc1 (racemic) [tranylcypromine, reference compound] | 10%
